{"source": "patent US11208412B2", "about": "(DAEGU-GYEONGBUK MEDICAL INNOVATION FOUNDATION, priority 2017, dated 2021)", "assay_in_all_cases": "Kinase selectivity, DiscoverX scanMAX Kinase assay panel (% control)", "format_in_all_cases": "binding", "key": {"[1]": {"biological_target": "T1, kinases of the scanMAX Kinase assay panel (Homo sapiens, UniProt Q07912)", "T1 construct": "purchased DiscoverX Co. (contract measurement) scanMAX Kinase assay panel", "T1 sequence (Q07912 whole entry)": "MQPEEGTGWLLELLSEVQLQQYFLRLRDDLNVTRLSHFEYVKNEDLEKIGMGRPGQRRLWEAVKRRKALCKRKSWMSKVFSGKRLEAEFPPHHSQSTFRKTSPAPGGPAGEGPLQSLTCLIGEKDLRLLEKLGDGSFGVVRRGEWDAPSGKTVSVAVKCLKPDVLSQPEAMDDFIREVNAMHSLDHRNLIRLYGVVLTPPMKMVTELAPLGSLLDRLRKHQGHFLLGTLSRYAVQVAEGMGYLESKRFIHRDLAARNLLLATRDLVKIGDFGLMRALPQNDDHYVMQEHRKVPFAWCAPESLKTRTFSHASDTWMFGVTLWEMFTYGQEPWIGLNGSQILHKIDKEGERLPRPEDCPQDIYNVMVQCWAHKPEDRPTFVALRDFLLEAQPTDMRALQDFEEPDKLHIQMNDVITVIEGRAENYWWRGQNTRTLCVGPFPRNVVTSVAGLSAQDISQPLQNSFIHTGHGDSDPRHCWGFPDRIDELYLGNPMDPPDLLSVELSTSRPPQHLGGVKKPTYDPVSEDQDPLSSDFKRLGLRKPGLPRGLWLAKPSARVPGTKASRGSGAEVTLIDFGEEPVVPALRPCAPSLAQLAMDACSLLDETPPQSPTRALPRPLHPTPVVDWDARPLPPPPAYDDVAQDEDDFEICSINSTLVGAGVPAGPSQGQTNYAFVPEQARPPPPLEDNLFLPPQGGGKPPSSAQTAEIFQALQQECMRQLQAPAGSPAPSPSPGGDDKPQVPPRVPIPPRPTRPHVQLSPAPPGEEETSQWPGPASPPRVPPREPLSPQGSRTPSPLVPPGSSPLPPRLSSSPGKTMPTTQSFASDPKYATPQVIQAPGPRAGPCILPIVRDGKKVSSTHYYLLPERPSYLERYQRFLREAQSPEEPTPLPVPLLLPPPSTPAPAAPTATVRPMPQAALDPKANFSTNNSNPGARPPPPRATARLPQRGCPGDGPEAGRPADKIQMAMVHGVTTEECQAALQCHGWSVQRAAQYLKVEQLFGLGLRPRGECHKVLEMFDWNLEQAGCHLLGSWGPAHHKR", "conditions": "kinase TNK2; 1 uM in DMSO", "method_in_brief": "(§1)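 Compounds tested at 1 uM against the scanMAX kinase panel. Signal expressed as % control = (compound − positive control)/(DMSO negative control − positive control) × 100, where positive control = 0% and DMSO = 100%; below 35% counted as activity on that kinase.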"}, "[2]": {"biological_target": "T2, kinases of the scanMAX Kinase assay panel (Homo sapiens, UniProt Q13131)", "T2 construct": "purchased DiscoverX Co. (contract measurement) scanMAX Kinase assay panel", "T2 sequence (Q13131 whole entry)": "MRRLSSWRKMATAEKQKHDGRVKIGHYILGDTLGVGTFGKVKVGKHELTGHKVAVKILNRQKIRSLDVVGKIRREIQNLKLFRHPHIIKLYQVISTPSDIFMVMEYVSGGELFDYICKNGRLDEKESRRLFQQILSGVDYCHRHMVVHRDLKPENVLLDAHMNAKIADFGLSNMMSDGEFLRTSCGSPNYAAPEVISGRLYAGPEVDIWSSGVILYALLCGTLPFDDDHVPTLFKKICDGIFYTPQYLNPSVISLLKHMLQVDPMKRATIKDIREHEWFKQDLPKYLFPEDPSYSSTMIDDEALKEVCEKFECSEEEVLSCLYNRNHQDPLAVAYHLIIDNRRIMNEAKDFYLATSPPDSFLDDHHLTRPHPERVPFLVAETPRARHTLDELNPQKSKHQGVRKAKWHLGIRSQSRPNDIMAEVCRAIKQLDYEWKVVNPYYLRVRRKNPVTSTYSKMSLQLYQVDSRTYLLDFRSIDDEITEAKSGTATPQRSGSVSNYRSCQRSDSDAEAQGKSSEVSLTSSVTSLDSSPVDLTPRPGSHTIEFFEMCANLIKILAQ", "conditions": "AMPK-alpha1; 1 uM", "method_in_brief": "as §1"}, "[3]": {"biological_target": "T3, kinases of the scanMAX Kinase assay panel (Homo sapiens, UniProt Q9BXA7)", "T3 construct": "purchased DiscoverX Co. (contract measurement) scanMAX Kinase assay panel", "T3 sequence (Q9BXA7 1-367)": "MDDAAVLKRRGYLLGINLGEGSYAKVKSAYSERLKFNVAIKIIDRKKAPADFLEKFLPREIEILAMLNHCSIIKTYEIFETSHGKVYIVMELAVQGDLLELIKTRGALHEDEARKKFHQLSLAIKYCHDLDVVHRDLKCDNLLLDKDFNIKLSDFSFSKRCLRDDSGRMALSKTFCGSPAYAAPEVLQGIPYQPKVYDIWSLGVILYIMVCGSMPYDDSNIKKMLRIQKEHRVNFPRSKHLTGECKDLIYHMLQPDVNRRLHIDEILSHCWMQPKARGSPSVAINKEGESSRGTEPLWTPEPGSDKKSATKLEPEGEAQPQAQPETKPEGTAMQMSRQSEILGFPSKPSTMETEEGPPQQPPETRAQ", "conditions": "kinase TSSK1B; 1 uM in DMSO", "method_in_brief": "as §1"}, "[4]": {"biological_target": "T4, kinases of the scanMAX Kinase assay panel (Homo sapiens, UniProt P37023)", "T4 construct": "purchased DiscoverX Co. (contract measurement) scanMAX Kinase assay panel", "T4 sequence (P37023 22-503)": "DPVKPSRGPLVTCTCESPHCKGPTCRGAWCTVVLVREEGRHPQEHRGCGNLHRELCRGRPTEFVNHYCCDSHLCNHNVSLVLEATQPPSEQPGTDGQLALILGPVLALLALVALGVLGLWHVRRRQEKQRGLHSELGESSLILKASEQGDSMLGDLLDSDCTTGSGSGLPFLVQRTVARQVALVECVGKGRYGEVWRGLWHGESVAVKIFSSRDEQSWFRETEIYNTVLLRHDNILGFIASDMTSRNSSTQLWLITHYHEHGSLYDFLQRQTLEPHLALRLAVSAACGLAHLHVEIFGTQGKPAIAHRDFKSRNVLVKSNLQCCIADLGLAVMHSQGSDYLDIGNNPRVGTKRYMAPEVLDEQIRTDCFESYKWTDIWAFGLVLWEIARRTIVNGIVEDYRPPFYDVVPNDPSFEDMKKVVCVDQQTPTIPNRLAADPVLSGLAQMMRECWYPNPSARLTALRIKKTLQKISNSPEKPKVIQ", "conditions": "ACVRL1; 1 uM", "method_in_brief": "as §1"}, "[5]": {"biological_target": "T5, kinases of the scanMAX Kinase assay panel (Homo sapiens, UniProt Q00537)", "T5 construct": "purchased DiscoverX Co. (contract measurement) scanMAX Kinase assay panel", "T5 sequence (Q00537 whole entry)": "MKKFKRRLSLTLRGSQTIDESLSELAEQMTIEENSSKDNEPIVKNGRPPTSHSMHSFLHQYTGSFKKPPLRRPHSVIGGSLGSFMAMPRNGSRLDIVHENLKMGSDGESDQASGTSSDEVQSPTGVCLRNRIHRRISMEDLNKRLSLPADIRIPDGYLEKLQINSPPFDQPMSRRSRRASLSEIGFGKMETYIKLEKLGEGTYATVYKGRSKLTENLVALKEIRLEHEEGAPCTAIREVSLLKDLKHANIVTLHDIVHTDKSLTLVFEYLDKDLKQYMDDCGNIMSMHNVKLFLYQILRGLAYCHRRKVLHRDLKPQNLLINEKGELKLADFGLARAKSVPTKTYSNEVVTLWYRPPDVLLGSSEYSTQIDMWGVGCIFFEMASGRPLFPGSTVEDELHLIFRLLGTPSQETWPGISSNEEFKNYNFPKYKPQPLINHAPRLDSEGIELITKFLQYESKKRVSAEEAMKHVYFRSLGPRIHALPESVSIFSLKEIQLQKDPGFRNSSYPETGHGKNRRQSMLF", "conditions": "PCTK2; 1 uM", "method_in_brief": "as §1"}, "[6]": {"biological_target": "T6, kinases of the scanMAX Kinase assay panel (Homo sapiens, UniProt Q9UQM7)", "T6 construct": "purchased DiscoverX Co. (contract measurement) scanMAX Kinase assay panel", "T6 sequence (Q9UQM7 whole entry)": "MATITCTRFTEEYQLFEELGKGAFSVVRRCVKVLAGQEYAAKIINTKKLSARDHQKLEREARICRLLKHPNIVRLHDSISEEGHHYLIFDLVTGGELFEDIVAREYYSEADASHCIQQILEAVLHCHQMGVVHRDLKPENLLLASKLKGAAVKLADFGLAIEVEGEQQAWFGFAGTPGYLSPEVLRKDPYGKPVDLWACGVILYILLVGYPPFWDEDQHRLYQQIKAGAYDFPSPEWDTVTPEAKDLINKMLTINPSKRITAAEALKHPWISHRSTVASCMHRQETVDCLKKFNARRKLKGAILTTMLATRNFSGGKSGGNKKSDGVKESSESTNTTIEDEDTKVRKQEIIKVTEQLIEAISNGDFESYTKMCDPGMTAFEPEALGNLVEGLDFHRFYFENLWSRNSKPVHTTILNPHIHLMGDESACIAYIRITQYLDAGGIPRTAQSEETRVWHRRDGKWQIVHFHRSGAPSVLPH", "conditions": "CAMK2A; 1 uM", "method_in_brief": "as §1"}, "[7]": {"biological_target": "T7, kinases of the scanMAX Kinase assay panel (Homo sapiens, UniProt Q96PY6)", "T7 construct": "purchased DiscoverX Co. (contract measurement) scanMAX Kinase assay panel", "T7 sequence (Q96PY6 1-1258)": "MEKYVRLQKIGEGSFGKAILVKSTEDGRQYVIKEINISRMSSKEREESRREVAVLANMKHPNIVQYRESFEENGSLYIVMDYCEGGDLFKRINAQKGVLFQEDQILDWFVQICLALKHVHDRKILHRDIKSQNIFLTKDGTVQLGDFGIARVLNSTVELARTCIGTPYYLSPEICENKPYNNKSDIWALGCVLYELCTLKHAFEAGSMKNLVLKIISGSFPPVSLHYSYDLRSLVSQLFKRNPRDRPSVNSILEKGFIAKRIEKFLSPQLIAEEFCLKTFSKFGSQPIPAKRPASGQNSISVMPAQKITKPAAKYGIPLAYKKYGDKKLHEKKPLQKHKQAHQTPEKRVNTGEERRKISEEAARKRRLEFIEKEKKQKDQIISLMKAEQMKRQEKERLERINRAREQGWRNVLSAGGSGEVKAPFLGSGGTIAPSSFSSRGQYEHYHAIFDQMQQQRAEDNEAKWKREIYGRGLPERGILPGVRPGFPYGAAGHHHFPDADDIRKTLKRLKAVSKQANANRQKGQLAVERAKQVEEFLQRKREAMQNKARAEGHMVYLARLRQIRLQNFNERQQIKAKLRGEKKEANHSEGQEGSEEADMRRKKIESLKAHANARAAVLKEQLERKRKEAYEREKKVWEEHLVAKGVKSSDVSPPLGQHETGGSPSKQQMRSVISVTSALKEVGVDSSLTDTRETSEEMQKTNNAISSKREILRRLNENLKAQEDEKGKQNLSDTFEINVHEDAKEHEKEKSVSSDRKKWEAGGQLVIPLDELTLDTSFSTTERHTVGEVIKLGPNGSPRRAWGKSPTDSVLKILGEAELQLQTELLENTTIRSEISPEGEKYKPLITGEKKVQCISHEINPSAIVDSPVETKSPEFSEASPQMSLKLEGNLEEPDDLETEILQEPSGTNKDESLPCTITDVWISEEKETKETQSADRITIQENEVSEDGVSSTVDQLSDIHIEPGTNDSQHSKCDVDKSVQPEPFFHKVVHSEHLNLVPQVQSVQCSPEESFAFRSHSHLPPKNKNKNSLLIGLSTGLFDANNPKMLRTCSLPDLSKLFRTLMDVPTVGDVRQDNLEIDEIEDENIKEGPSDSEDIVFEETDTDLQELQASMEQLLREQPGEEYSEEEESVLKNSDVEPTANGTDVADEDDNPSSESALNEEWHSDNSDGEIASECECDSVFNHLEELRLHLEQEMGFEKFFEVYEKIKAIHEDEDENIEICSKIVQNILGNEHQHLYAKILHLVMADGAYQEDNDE", "conditions": "NEK1; 1 uM", "method_in_brief": "as §1"}}}
{"smiles": "CCNc1nc(Nc2ccc(C(=O)N3CCC(N4CCOCC4)CC3)cc2OC)nc2[nH]cc(C(F)(F)F)c12", "note": "[Example 104, (4-((4-(ethylamino)-5-(trifluoromethyl)-7H-pyrrolo[2,3-d]pyrimidine-2-yl)amino)-3-methoxyphenyl)(4-morpholinopiperidine-1-yl)methanone]", "values": [{"measurement": "remaining binding at 1 µM", "setting": "[1]", "value": 31, "unit": "%"}, {"measurement": "remaining binding at 1 µM", "setting": "[2]", "value": 100, "unit": "%"}, {"measurement": "remaining binding at 1 µM", "setting": "[3]", "value": 0, "unit": "%"}, {"measurement": "remaining binding at 1 µM", "setting": "[4]", "value": 97, "unit": "%"}, {"measurement": "remaining binding at 1 µM", "setting": "[5]", "value": 99, "unit": "%"}, {"measurement": "remaining binding at 1 µM", "setting": "[6]", "value": 39, "unit": "%"}, {"measurement": "remaining binding at 1 µM", "setting": "[7]", "value": 93, "unit": "%"}]}
{"smiles": "CC1(Nc2nc(Nc3cnn([C@H]4CCN(C5COC5)C[C@@H]4F)c3Cl)nc3[nH]cc(C#N)c23)CC1", "note": "[Example 52, 2-((5-chloro-1-((3S,4S)-3-fluoro-1-(oxetane-3-yl)piperidine-4-yl)-1H-pyrazole-4-yl)amino)((1-methylcyclopropyl)amino)-7H-pyrrolo[2,3-d]pyrimidine-5-carbonitrile]", "values": [{"measurement": "remaining binding at 1 µM", "setting": "[1]", "value": 0.9, "unit": "%"}, {"measurement": "remaining binding at 1 µM", "setting": "[2]", "value": 4.3, "unit": "%"}, {"measurement": "remaining binding at 1 µM", "setting": "[3]", "value": 0.6, "unit": "%"}, {"measurement": "remaining binding at 1 µM", "setting": "[4]", "value": 100, "unit": "%"}, {"measurement": "remaining binding at 1 µM", "setting": "[5]", "value": 88, "unit": "%"}, {"measurement": "remaining binding at 1 µM", "setting": "[6]", "value": 28, "unit": "%"}, {"measurement": "remaining binding at 1 µM", "setting": "[7]", "value": 80, "unit": "%"}]}
{"smiles": "CNc1nc(Nc2ccc(C(=O)N3CCOCC3)cc2OC)nc2[nH]cc(C#N)c12", "note": "[Example 1, 2-((2-methoxy-4-(morpholine-4-carbonyl)phenyl)amino)-4-(methylamino)-7H-pyrrolo[2,3-d]pyrimidine-5-carbonitrile]", "values": [{"measurement": "remaining binding at 1 µM", "setting": "[1]", "value": 82, "unit": "%"}, {"measurement": "remaining binding at 1 µM", "setting": "[2]", "value": 87, "unit": "%"}, {"measurement": "remaining binding at 1 µM", "setting": "[3]", "value": 22, "unit": "%"}, {"measurement": "remaining binding at 1 µM", "setting": "[4]", "value": 88, "unit": "%"}, {"measurement": "remaining binding at 1 µM", "setting": "[5]", "value": 98, "unit": "%"}, {"measurement": "remaining binding at 1 µM", "setting": "[6]", "value": 60, "unit": "%"}, {"measurement": "remaining binding at 1 µM", "setting": "[7]", "value": 94, "unit": "%"}]}
